Assays:
Assay in all cases: preservation efficacy test (PET), European Pharmacopoeia 5.1.3
Format in all cases: cell-based
Pseudomonas aeruginosa = test system: Pseudomonas aeruginosa
Staphylococcus aureus = conditions: for number of microorganisms, 2 days / number of microorganisms, 7 days / number of microorganisms, 14 days / number of microorganisms, 28 days: PET, Staphylococcus aureus (SA)
Escherichia coli = conditions: for number of microorganisms, 2 days / number of microorganisms, 7 days / number of microorganisms, 14 days / number of microorganisms, 28 days: PET, Escherichia coli (EC)
Candida albicans = conditions: for number of microorganisms, 2 days / number of microorganisms, 7 days / number of microorganisms, 14 days / number of microorganisms, 28 days: PET, Candida albicans (CA); for number of microorganisms, 2 days: 2 days after inoculation
Aspergillus brasiliensis = conditions: for number of microorganisms, 2 days / number of microorganisms, 7 days / number of microorganisms, 14 days / number of microorganisms, 28 days: PET, Aspergillus brasiliensis (AB)
[1] = 2 days after inoculation, substance at given % in test formulation
[2] = 7 days after inoculation, substance at given % in test formulation
[3] = 14 days after inoculation, substance at given % in test formulation
[4] = 28 days after inoculation, substance at given % in test formulation

Compound | number of microorganisms, 2 days (Staphylococcus aureus; 2 days after inoculation) | number of microorganisms, 7 days (Staphylococcus aureus; 7 days after inoculation) | number of microorganisms, 14 days (Staphylococcus aureus; 14 days after inoculation) | number of microorganisms, 28 days (Staphylococcus aureus; 28 days after inoculation) | number of microorganisms, 2 days (Escherichia coli; 2 days after inoculation) | number of microorganisms, 7 days (Escherichia coli; 7 days after inoculation) | number of microorganisms, 14 days (Escherichia coli; 14 days after inoculation) | number of microorganisms, 28 days (Escherichia coli; 28 days after inoculation) | number of microorganisms, 2 days (Candida albicans) | number of microorganisms, 7 days (Candida albicans; 7 days after inoculation) | number of microorganisms, 14 days (Candida albicans; 14 days after inoculation) | number of microorganisms, 28 days (Candida albicans; 28 days after inoculation) | number of microorganisms, 2 days (Aspergillus brasiliensis; 2 days after inoculation) | number of microorganisms, 7 days (Aspergillus brasiliensis; 7 days after inoculation) | number of microorganisms, 14 days (Aspergillus brasiliensis; 14 days after inoculation) | number of microorganisms, 28 days (Aspergillus brasiliensis; 28 days after inoculation) | further results
O=C([O-])CN(CCN(CC(=O)O)CC(=O)O)CC(=O)[O-].[Na+].[Na+] [0.2 % Disodium EDTA] | – | – | – | – | – | – | – | – | – | – | – | – | – | – | – | – | count at 2 days (Pseudomonas aeruginosa; PA, 2 days after inoculation, use concentration in label): 1; count at 7 days (Pseudomonas aeruginosa; PA, 7 days after inoculation, use concentration in label): 1; count at 14 days (Pseudomonas aeruginosa; PA, 14 days after inoculation, use concentration in label): 1; count at 28 days (Pseudomonas aeruginosa; PA, 28 days after inoculation, use concentration in label): 1; count at 2 days (Staphylococcus aureus; SA, 2 days after inoculation, use concentration in label): 530.000; count at 7 days (Staphylococcus aureus; SA, 7 days after inoculation, use concentration in label): 49.000; count at 14 days (Staphylococcus aureus; SA, 14 days after inoculation, use concentration in label): 49.000; count at 28 days (Staphylococcus aureus; SA, 28 days after inoculation, use concentration in label): 2.500; count at 2 days (Escherichia coli; EC, 2 days after inoculation, use concentration in label): 330.000; count at 7 days (Escherichia coli; EC, 7 days after inoculation, use concentration in label): 85.000; count at 14 days (Escherichia coli; EC, 14 days after inoculation, use concentration in label): 85.000; count at 28 days (Escherichia coli; EC, 28 days after inoculation, use concentration in label): 1.800; count at 28 days (Candida albicans; CA, 28 days after inoculation, use concentration in label): 810.000; count at 2 days (Aspergillus brasiliensis; AB, 2 days after inoculation, use concentration in label): 990.000; count at 7 days (Aspergillus brasiliensis; AB, 7 days after inoculation, use concentration in label): 590.000; count at 14 days (Aspergillus brasiliensis; AB, 14 days after inoculation, use concentration in label): 590.000; count at 28 days (Aspergillus brasiliensis; AB, 28 days after inoculation, use concentration in label): 330.000
O=C(OCc1ccccc1)c1ccccc1O [0.2% Benzyl Salicylate] | – | – | – | – | – | – | – | – | – | – | – | – | – | – | – | – | PA germ count, 2 days (Pseudomonas aeruginosa; [1]): 1.200; PA germ count, 7 days (Pseudomonas aeruginosa; [2]): 790; PA germ count, 14 days (Pseudomonas aeruginosa; [3]): 160.000; PA germ count, 28 days (Pseudomonas aeruginosa; [4]): 44.000; SA germ count, 2 days (Staphylococcus aureus; [1]): 670.000; SA germ count, 7 days (Staphylococcus aureus; [2]): 9.200; SA germ count, 14 days (Staphylococcus aureus; [3]): 1; SA germ count, 28 days (Staphylococcus aureus; [4]): 1; EC germ count, 2 days (Escherichia coli; [1]): 250.000; EC germ count, 7 days (Escherichia coli; [2]): 13.000; EC germ count, 14 days (Escherichia coli; [3]): 640; EC germ count, 28 days (Escherichia coli; [4]): 430; CA germ count, 7 days (Candida albicans; [2]): 600.000; CA germ count, 14 days (Candida albicans; [3]): 370.000; CA germ count, 28 days (Candida albicans; [4]): 390.000; AB germ count, 14 days (Aspergillus brasiliensis; [3]): 750.000; AB germ count, 28 days (Aspergillus brasiliensis; [4]): 630.000
CCCCCCCCC(O)CO (centres unmarked) [1,2-decylene glycol, reference compound] | 1 | 1 | 1 | 1 | 1 | 1 | 1 | 1 | 50.000 | 12.000 | 4.100 | 1 | 600.000 | 520.000 | 240.000 | 190.000 | –
CCCCCCC(O)CO (centres unmarked) [1,2-octanediol] | 1 | 1 | 1 | 1 | 1 | 1 | 1 | 1 | 70.000 | 9.000 | 1 | 1 | 650.000 | 360.000 | 250.000 | 67.000 | –
O=c1cccccc1O [Tropolone, reference compound] | 110.000 | 3.100 | 3.100 | 1 | 190.000 | 1.100 | 1.100 | 1 | 1 | 1 | 1 | 1 | 690.000 | 26.000 | 1.400 | 1 | –
CCCCCCCC(=O)NO [caprylhydroxamic acid, reference compound] | 1 | 1 | 1 | 1 | 6.900 | 1 | 1 | 1 | 210.000 | 1 | 1 | 1 | 810.000 | 68.000 | 180 | 1 | –

— patent US20230293407A1, “Compositions Comprising (Bio)-Alkanediols with Antimicrobials for Product Protection” (Symrise AG, priority 2020, published 2023)
